Experimental findings from ChEMBL document CHEMBL3751750, “2-Amino-4-bis(aryloxybenzyl)aminobutanoic acids: A novel scaffold for inhibition of ASCT2-mediated glutamine transport” (Bioorg Med Chem Lett, 2016) are described below.

As usually defined, the pIC50 is the negative decadic logarithm of the IC50, by convention in mol/L. Low values mean a high IC50, high ones a low IC50.

Test [1] addresses T1, Neutral amino acid transporter B(0) (Homo sapiens, UniProt Q15758).
T1 sequence (Q15758 whole entry): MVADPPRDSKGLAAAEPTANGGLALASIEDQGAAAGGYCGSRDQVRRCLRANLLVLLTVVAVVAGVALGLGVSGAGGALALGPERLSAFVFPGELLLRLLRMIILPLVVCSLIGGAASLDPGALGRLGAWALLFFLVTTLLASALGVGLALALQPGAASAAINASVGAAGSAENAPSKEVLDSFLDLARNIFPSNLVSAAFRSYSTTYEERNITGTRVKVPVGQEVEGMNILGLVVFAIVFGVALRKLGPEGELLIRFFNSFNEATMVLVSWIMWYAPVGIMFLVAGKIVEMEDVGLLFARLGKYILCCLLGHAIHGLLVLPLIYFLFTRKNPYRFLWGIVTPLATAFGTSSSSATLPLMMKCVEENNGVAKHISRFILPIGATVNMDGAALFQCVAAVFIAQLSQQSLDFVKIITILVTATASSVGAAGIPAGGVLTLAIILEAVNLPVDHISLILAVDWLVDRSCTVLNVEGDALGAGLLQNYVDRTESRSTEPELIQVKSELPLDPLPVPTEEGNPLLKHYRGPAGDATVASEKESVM
Briefly: Inhibition of ASCT2 (unknown origin)-mediated glutamine transport.

The target of test [2] is T1, Neutral amino acid transporter B(0). Briefly: Inhibition of ASCT2-mediated glutamine transport in human HEK293 cells using [3H]-glutamine after 15 mins by scintillation counting. Type of test: cell-based.
The next test addresses T2, Amino acid transporter (Rattus norvegicus, UniProt Q9Z1J7).
T2 sequence (Q9Z1J7 whole entry): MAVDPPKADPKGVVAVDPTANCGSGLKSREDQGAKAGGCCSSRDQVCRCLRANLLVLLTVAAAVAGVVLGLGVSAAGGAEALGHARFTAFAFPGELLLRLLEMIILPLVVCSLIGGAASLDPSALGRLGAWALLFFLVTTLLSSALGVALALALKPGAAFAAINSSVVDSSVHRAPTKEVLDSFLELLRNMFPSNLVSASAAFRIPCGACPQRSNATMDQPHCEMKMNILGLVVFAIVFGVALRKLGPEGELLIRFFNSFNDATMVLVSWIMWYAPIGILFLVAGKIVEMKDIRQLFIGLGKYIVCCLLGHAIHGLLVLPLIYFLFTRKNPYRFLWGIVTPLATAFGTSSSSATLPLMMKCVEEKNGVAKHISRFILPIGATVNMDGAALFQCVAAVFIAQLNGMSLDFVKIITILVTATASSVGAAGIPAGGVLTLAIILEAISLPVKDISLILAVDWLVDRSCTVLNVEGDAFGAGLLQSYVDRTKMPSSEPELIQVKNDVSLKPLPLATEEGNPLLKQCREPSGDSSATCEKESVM
Briefly: Inhibition of ASCT2-mediated glutamine transport in rat C6 cells using [3H]-glutamine after 15 mins by scintillation counting. It counts as cell-based.

pIC50: −log10 of the molar value.

With `N[C@@H](COC(=O)c1ccc(-c2ccccc2)cc1)C(=O)O`, the pIC50 in test [1] is 4.52.

Regarding `N[C@@H](CCN(Cc1ccccc1OCc1ccccn1)Cc1ccccc1OCc1ccccn1)C(=O)O`, the values for the pIC50 (in test [2]; against Amino acid transporter) were 4.32 and 5.08, respectively.

On to `N[C@@H](CCN(Cc1ccccc1OCc1ccccc1F)Cc1ccccc1OCc1ccccc1F)C(=O)O`, for which the pIC50 on Amino acid transporter was 5.48.

Regarding `N[C@@H](CCN(Cc1ccccc1Oc1ccccc1F)Cc1ccccc1Oc1ccccc1F)C(=O)O`, the values for the negative logarithm of the IC50 (pIC50) (in test [2]; against Amino acid transporter) were 4.47 and 5.74, respectively.

As for `N[C@@H](CCN(Cc1ccccc1OCc1ccccc1Cl)Cc1ccccc1OCc1ccccc1Cl)C(=O)O`, the pIC50 in test [2] was 4.40; on Amino acid transporter, 4.74.

`N[C@@H](CCN(Cc1ccccc1Oc1cccc(F)c1)Cc1ccccc1Oc1cccc(F)c1)C(=O)O` showed a negative logarithm of the IC50 (pIC50) at Amino acid transporter of 4.44.

With `N[C@@H](CCN(Cc1ccccc1Oc1ccccn1)Cc1ccccc1Oc1ccccn1)C(=O)O`, the pIC50 was 4.22 in test [2] and 4.17 against Amino acid transporter.

As to `N[C@@H](CCN(Cc1ccccc1Oc1ccc(F)cc1)Cc1ccccc1Oc1ccc(F)cc1)C(=O)O`, the negative-log IC50 (pIC50) in test [2] is 3.85; on Amino acid transporter, 4.98.

As to `N[C@@H](CCN(Cc1ccccc1Oc1ccc(Cl)cc1)Cc1ccccc1Oc1ccc(Cl)cc1)C(=O)O`, in test [2], the negative logarithm of the IC50 (pIC50) was 4.59.

Turning to `Cc1ccccc1COc1ccccc1CN(CC[C@H](N)C(=O)O)Cc1ccccc1OCc1ccccc1C`, the pIC50 in test [2] is 4.59; against Amino acid transporter, 4.38.

In turn, `N#Cc1cc(Br)ccc1/N=c1\ssnc1Cl` had a negative-log IC50 (pIC50) in test [1] of 5.43.

On to `COc1ccc(Oc2ccccc2CN(CC[C@H](N)C(=O)O)Cc2ccccc2Oc2ccc(OC)cc2)cc1`, for which the pIC50 was 4.92 in test [2] and 5.06 against Amino acid transporter.

As for `N[C@@H](CCN(Cc1ccccc1OCc1cccc(Cl)c1)Cc1ccccc1OCc1cccc(Cl)c1)C(=O)O`, the pIC50 was 4.29 in test [2] and 4.90 on Amino acid transporter.

As for `COc1cccc(Oc2ccccc2CN(CC[C@H](N)C(=O)O)Cc2ccccc2Oc2cccc(OC)c2)c1`, the negative logarithm of the IC50 (pIC50) in test [2] is 4.24; against Amino acid transporter, 5.89.

For `Cc1ccc(COc2ccccc2CN(CC[C@H](N)C(=O)O)Cc2ccccc2OCc2ccc(C)cc2)cc1`, the pIC50 was 4.76 in test [2] and 4.06 on Amino acid transporter.

Compound `N[C@@H](CCN(Cc1ccccc1OCc1ccc(F)cc1)Cc1ccccc1OCc1ccc(F)cc1)C(=O)O` showed a pIC50 against Amino acid transporter of 4.95.

In the case of `N[C@@H](CCN(Cc1ccccc1OCc1ccc(Cl)cc1)Cc1ccccc1OCc1ccc(Cl)cc1)C(=O)O`, the pIC50 in test [2] was 4.47; against Amino acid transporter, 4.70.

For the compound `N[C@@H](CCN(Cc1ccccc1OCc1cccnc1)Cc1ccccc1OCc1cccnc1)C(=O)O`, the pIC50 in test [2] was 4.16; at Amino acid transporter, 4.76.

Consider `COc1cccc(COc2ccccc2CN(CC[C@H](N)C(=O)O)Cc2ccccc2OCc2cccc(OC)c2)c1`, for which the pIC50 in test [2] is 5.14; at Amino acid transporter, 5.29.

As to `N[C@@H](CCC(=O)Nc1ccc([N+](=O)[O-])cc1)C(=O)O`, the negative logarithm of the IC50 (pIC50) in test [2] was 2.92; in test [1], 3.00.
